Test results published in patent publication US20210106550A1, “COMPOSITIONS FOR PREVENTING OR TREATING COGNITIVE IMPAIRMENT-RELATED DISEASE COMPRISING MUMEFURAL” (KOREA INSTITUTE OF ORIENTAL MEDICINE, priority 2018, published 2021).

What was measured:
IL-1β and IL-18 = experiment: enzyme immunoassay of inflammatory cytokines in hippocampus tissue; format: in vivo, Wistar rats; conditions: compared with the negative control, FIG. 20
Procedure: (§1) Specifically, 12-week-old Wister rats (350 g to 380 g) were used for the experiments. After obtaining the experimental animals, appearance was visually inspected and then normal symptoms were observed during a 7-day acclimation period. Healthy animals were selected therefrom and assigned to groups by a random method according to body weight ranges, and then experiments were performed. During the acclimation and experiment, a constant breeding environment was maintained under the conditions of a temperature of 23±3° C., a relative humidity of 50±10%, a ventilation frequency of 12 times to 16 times per hour, a 12-hour light-dark cycle (light on at 7:00, light off at 19:00), and an intensity of illumination of 150 Lx to 300 Lx. Experiments were performed using sterilized instruments, and the rats were allowed free access to tap water and a solid feed (PMI nutrition, USA) for 24 hours.
In order to construct a vascular dementia-mimic animal model, chronic cerebral hypoperfusion was induced by bilateral common carotid artery occlusion (2VO, hereinafter referred to as “brain damage (BCCA0)”) (Wakita et al., 1994). The rats were anesthetized with 4% isoflurane, and the anesthesia was maintained by 1.5% isoflurane during the operation. The central neck was incised to expose the bilateral common carotid artery carefully so as not to cause damage to the vagal nerve. […]

astrocytes = experiment: immunohistostaining of GFAP (astrocytes) in hippocampus and white matter; format: in vivo, Wistar rats
Procedure: as §1
(§2) In order to construct a vascular dementia-mimic animal model, chronic cerebral hypoperfusion was induced by bilateral common carotid artery occlusion (2VO, hereinafter referred to as “brain damage (BCCA0)”) (Wakita et al., 1994). The rats were anesthetized with 4% isoflurane, and the anesthesia was maintained by 1.5% isoflurane during the operation. The central neck was incised to expose the bilateral common carotid artery carefully so as not to cause damage to the vagal nerve. Ligation was performed twice with No. 3 silk, thereby constructing an animal model in which dementia was induced by brain damage.
After 21 days from the BCCA0 operation, the Wistar rats were orally administered with mumefural for 42 days. The rats were divided into 5 groups listed in Table 1 below, and controls were orally administered with saline. […]
In order to investigate effects of mumefural on normalization of damaged hippocampus and corpus callosum of white matter in the dementia-mimic animal model, mumefural was administered in the same manner as in Example 1, and then microglia and astrocytes were detected in the hippocampus and white matter to identify gliosis. […]

[1] = tested on: BDNF and phospho-CREB proteins; experiment: western blot of memory-related factors in hippocampus; format: in vivo, Wistar rats
Procedure: as §1, §2
(§3) After 21 days from the BCCA0 operation, the Wistar rats were orally administered with mumefural for 42 days. The rats were divided into 5 groups listed in Table 1 below, and controls were orally administered with saline. Different concentrations of mumefural were set in the oral administration as low concentration (20 mg/kg), medium concentration (40 mg/kg), and high concentration (80 mg/kg).
In order to investigate effects of mumefural on normalization of damaged hippocampus in the dementia-mimic animal model, mumefural was administered in the same manner as in Example 1, and then expression levels of memory-related factors in the hippocampus were analyzed.
Specifically, the hippocampus was excised from each of the dementia-mimic rats after administration of mumefural was completed, and proteins were extracted therefrom. Expression levels of brain-derived neurotrophic factor (BDNF), phospho-cAMP response element-binding protein (phospho-CREB), and cAMP response element-binding protein (CREB) were analyzed by western blotting. β-Actin was used as a loading control.

[2] = tested on: ChAT, VAChT, and AChE proteins; experiment: western blot of ChAT, VAChT, and AChE proteins in basal forebrain; format: in vivo; conditions: compared with the negative control; FIGS. 5A, 5B
Procedure: as §1, §2, §3

[3] = tested on: NMDAR2A and NMDAR2B proteins; experiment: western blot of post-synaptic receptors in hippocampus; format: in vivo, Wistar rats; conditions: compared with the negative control; FIGS. 12A, 12B
Procedure: Specifically, 12-week-old Wister rats (350 g to 380 g) were used for the experiments. After obtaining the experimental animals, appearance was visually inspected and then normal symptoms were observed during a 7-day acclimation period. Healthy animals were selected therefrom and assigned to groups by a random method according to body weight ranges, and then experiments were performed. […]
In order to investigate effects of mumefural on normalization of damaged hippocampus in the dementia-mimic animal model, mumefural was administered in the same manner as in Example 1, and then amounts of post-synaptic receptors in the hippocampus were analyzed by examining expression levels of N-methyl-D-aspartate receptor 2A (NMDAR2A) and N-methyl-D-aspartate receptor 2B (NMDAR2B) proteins.
Specifically, the hippocampus was excised from each of the dementia-mimic rats after administration of mumefural was completed, and the proteins were extracted therefrom. Expression levels of the NMDAR2A and NMDAR2B proteins were analyzed by western blotting. β-Actin was used as a loading control.

dementia-mimic rats = experiment: water maze test in dementia-mimic animal model; format: in vivo, Wistar rats
Procedure: as §1, §2, §3
In order to investigate effects of mumefural on enhancing spatial memory in the dementia-mimic animal model, a water maze test was performed after administering mumefural in the same manner as in Example 1 above.
Specifically, a circular water tank (diameter: 180 cm, height: 58 cm) was filled with water at a temperature of 26±2° C. up to 2 cm above a marked platform, screen walls were set up on all sides of the water tank to prevent light from coming through, and a pigment was added thereto to make the water opaque. In addition, labels were attached to given positions (diameter: 12 cm, height: 33.5 cm) of the screen walls to give clues for the rats to search for the marked platform. Spatial memory training was performed […] for 8 days every morning (from 9:00 a.m.) once per day 8 times in total. Time taken for the rats to find the hidden platform and escape latency thereof were measured and regarded as markers of memory, and reduced time of every group was compared every day. Thereafter, a water maze test was performed after 8 days from the training. In this test, time taken for the rats to first find the hidden platform was measured and used as a marker of memory. That is, a shorter time is regarded as more improved recognition ability.

[4] = 20 mg/kg, 40 mg/kg, and 80 mg/kg oral, relative to normal control
[5] = compared with the negative control, FIGS. 14A, 14B

How did the “level of IL-1β in hippocampus tissue” value (IL-1β and IL-18) turn out when `O=Cc1ccc(COC(=O)CC(O)(CC(=O)O)C(=O)O)o1` (stereo not shown) [mumefural] was run?
The value was “significantly decreased”.

And the “level of IL-18 in hippocampus tissue” value (IL-1β and IL-18)?
Its value is “significantly decreased”.

What about the “numbers of astrocytes, effect vs normal control” value (astrocytes; 20 mg/kg, 40 mg/kg, and 80 mg/kg oral, hippocampus and white matter) of the same compound?
The value was “effects similar to or superior to those of the normal control”.

What about the “numbers of astrocytes (GFAP positive cells) in the hippocampus” value (astrocytes; compared with the negative control, FIGS. 16A, 16B) of the same compound?
Its value is “significantly decreased”.

And the “numbers of astrocytes (GFAP positive cells) in the white matter” value (astrocytes; compared with the negative control, FIGS. 16C, 16D)?
The value was “significantly decreased”.

And the “expression level of BDNF protein vs normal control” value [1, 4]?
Its value is “higher expression levels than that of the normal control by about three times or more”.

What about the “expression level of phospho-CREB protein vs normal control” value [1, 4] of the same compound?
The value was “higher expression levels than that of the normal control by about three times or more”.

What about the “expression level of BDNF protein in hippocampus” value [1, 5] of the same compound?
The value was “significantly increased”.

And the “expression level of phospho-CREB protein in hippocampus” value [1, 5]?
The value was “significantly increased”.

And the “expression level of AChE protein in the basal forebrain” value [2]?
Its value is “reduced”.

What about the “expression level of ChAT protein in the basal forebrain” value [2] of the same compound?
Its value is “increased”.

And the “expression level of VAChT protein in the basal forebrain” value [2]?
The value was “increased”.

And the “expression level of NMDAR2A protein in hippocampus” value [3]?
The value was “significantly increased”.

And the “expression level of NMDAR2B protein in hippocampus” value [3]?
Its value is “significantly increased”.

And the “latency to find the hidden platform vs normal control” value (dementia-mimic rats; BCCAo rats, 20 mg/kg, 40 mg/kg, and 80 mg/kg oral, compared with normal control, FIG. 1)?
The value was “high latency similar to that of the normal control”.

What about the “time to first arrive at the hidden platform vs normal control” value (dementia-mimic rats; BCCAo rats, 40 mg/kg and 80 mg/kg oral, compared with normal control, FIG. 2) of the same compound?
The value was “short time similar to that of the normal control”.

What about the “time to first arrive at the hidden platform” value (dementia-mimic rats; BCCAo rats, oral mumefural 42 days, compared to the negative control, FIG. 2) of the same compound?
The value was “reduced”.

And the “latency to find the hidden platform (escape latency)” value (dementia-mimic rats; BCCAo rats, oral mumefural 42 days, compared with the negative control (saline), FIG. 1)?
The value was “increased”.

And the average swim speeds (dementia-mimic rats; among the groups (20, 40, 80 mg/kg, controls), FIG. 3)?
Its average swim speeds is “no difference”.
